Measured values from PubChem BioAssay AID330 (DTP/NCI, 2004).
Inconclusive results and toxic doses are left out. Rule for the calls: active = survival T/C of 150% or more; inactive = T/C below 125% in these data.

Test system: P388 leukemia ip, CD2F1 mice, survival T/C
Assay: NCI In Vivo Anticancer Drug Screen. Data for tumor model P388 Leukemia (intraperitoneal) in CD2F1 (CDF1) mice
Settings: endpoint: median survival time, higher = longer survival
In short: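 Mice carrying the transplanted tumor received test compound or vehicle. Survival was recorded in each group, and the value is the treated-group measurement divided by that of the vehicle-treated control group.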

[1] = dose: 50.0 mg/kg/injection, schedule: Q01DX005 (ip), vehicle: saline with Tween-80
[2] = dose: 100.0 mg/kg/injection, schedule: Q01DX005 (ip), vehicle: saline with Tween-80
[3] = dose: 200.0 mg/kg/injection, schedule: Q01DX005 (ip), vehicle: saline with Tween-80
[4] = dose: 50.0 mg/kg/injection, schedule: Q01DX009 (ip), vehicle: saline with Tween-80
[5] = dose: 100.0 mg/kg/injection, schedule: Q01DX009 (ip), vehicle: saline with Tween-80
[6] = dose: 200.0 mg/kg/injection, schedule: Q01DX009 (ip), vehicle: saline with Tween-80
[7] = dose: 25.0 mg/kg/injection, schedule: Q01DX009 (ip), vehicle: saline
[8] = dose: 50.0 mg/kg/injection, schedule: Q01DX009 (ip), vehicle: saline
[9] = dose: 100.0 mg/kg/injection, schedule: Q01DX009 (ip), vehicle: saline
[10] = dose: 50.0 mg/kg/injection, schedule: Q01DX005 (ip), vehicle: Klucel (hydroxypropylcellulose) (HPC)
[11] = dose: 100.0 mg/kg/injection, schedule: Q01DX005 (ip), vehicle: Klucel (hydroxypropylcellulose) (HPC)
[12] = dose: 60.0 mg/kg/injection, schedule: Q01DX005 (ip), vehicle: saline with Tween-80
[13] = dose: 120.0 mg/kg/injection, schedule: Q01DX005 (ip), vehicle: saline with Tween-80
[14] = dose: 240.0 mg/kg/injection, schedule: Q01DX005 (ip), vehicle: saline with Tween-80
[15] = dose: 200.0 mg/kg/injection, schedule: Q01DX005 (ip), vehicle: Klucel (hydroxypropylcellulose) (HPC)
[16] = dose: 50.0 mg/kg/injection, schedule: Q01DX009 (ip), vehicle: Klucel (hydroxypropylcellulose) (HPC)
[17] = dose: 100.0 mg/kg/injection, schedule: Q01DX009 (ip), vehicle: Klucel (hydroxypropylcellulose) (HPC)
[18] = dose: 200.0 mg/kg/injection, schedule: Q01DX009 (ip), vehicle: Klucel (hydroxypropylcellulose) (HPC)

Measured: T/C

CCOC(=O)/C(C#N)=C/c1ccc(-c2cc(C(F)(F)F)cc(C(F)(F)F)c2)o1
inactive: [1] 92 % of control | [2] 90 % of control | [3] 88 % of control

CCOC(=O)C(CCC(C)(C)SCc1ccccc1)(NC(C)=O)C(=O)OCC
inactive: [4] 91 % of control | [5] 91 % of control | [6] 86 % of control

CNC(=S)NNc1cccc([N+](=O)[O-])c1
inactive: dose: 25.0 mg/kg/injection, schedule: Q01DX009 (ip), vehicle: other 96 % of control | dose: 50.0 mg/kg/injection, schedule: Q01DX009 (ip), vehicle: other 106 % of control | dose: 100.0 mg/kg/injection, schedule: Q01DX009 (ip), vehicle: other 91 % of control | dose: 200.0 mg/kg/injection, schedule: Q01DX009 (ip), vehicle: other 92 % of control

CCCCCCOCN(COCCCCCC)c1ccc(Cl)cc1
inactive: [4] 102 % of control | [5] 109 % of control | [6] 118 % of control

COSc1ccc([N+](=O)[O-])cc1[N+](=O)[O-]
inactive: dose: 12.5 mg/kg/injection, schedule: Q01DX009 (ip), vehicle: saline with Tween-80 95 % of control | dose: 25.0 mg/kg/injection, schedule: Q01DX009 (ip), vehicle: saline with Tween-80 96 % of control | [7] 98 % of control | [4] 103 % of control | [8] 102 % of control | [5] 103 % of control | [9] 108 % of control | dose: 200.0 mg/kg/injection, schedule: Q01DX009 (ip), vehicle: saline 111 % of control

CCn1c2ccccc2c2ccc(N=Cc3cccc4ccccc34)cc21
inactive: dose: 100.0 mg/kg/injection, schedule: Q04DX003 (ip), vehicle: saline + alcohol 105 % of control | dose: 200.0 mg/kg/injection, schedule: Q04DX003 (ip), vehicle: saline + alcohol 97 % of control | dose: 400.0 mg/kg/injection, schedule: Q04DX003 (ip), vehicle: saline + alcohol 105 % of control

CCN1CCC(Nc2ccnc3cc(Cl)ccc23)CC1
inactive: [10] 99 % of control | [1] 104 % of control | [11] 94 % of control | [2] 110 % of control

CCC(C)NC(=O)C(C)O (configuration not stated)
inactive: dose: 50.0 mg/kg/injection, schedule: Q01DX005 (ip), vehicle: saline 95 % of control | dose: 100.0 mg/kg/injection, schedule: Q01DX005 (ip), vehicle: saline 99 % of control | dose: 200.0 mg/kg/injection, schedule: Q01DX005 (ip), vehicle: saline 97 % of control

C=C1C[C@H](O)[C@H]2C(C[Se]c3ccccc3)C(=O)O[C@@H]2[C@H]2[C@H](C)C(O)C[C@@H]12 (some centres not stated)
inactive: [12] 91 % of control | [13] 95 % of control | [14] 98 % of control

Cc1ccc(Cl)cc1NC(=O)OCCN(C)C(=O)Nc1cc(Cl)ccc1C
inactive: dose: 15.0 mg/kg/injection, schedule: Q01DX005 (ip), vehicle: Klucel (hydroxypropylcellulose) (HPC) 98 % of control | dose: 30.0 mg/kg/injection, schedule: Q01DX005 (ip), vehicle: Klucel (hydroxypropylcellulose) (HPC) 90 % of control | dose: 60.0 mg/kg/injection, schedule: Q01DX005 (ip), vehicle: Klucel (hydroxypropylcellulose) (HPC) 96 % of control

CON1C(=O)c2ccccc2C1=O
inactive: [5] 99 % of control | [6] 106 % of control | dose: 400.0 mg/kg/injection, schedule: Q01DX009 (ip), vehicle: saline with Tween-80 106 % of control

O=C(OCC(Cl)(Cl)Cl)N1[C@H]2C3=C(CCC3)[C@@H]([C@H]3O[C@H]32)N1C(=O)OCC(Cl)(Cl)Cl
inactive: [10] 97 % of control | [11] 97 % of control | [15] 97 % of control

N#CC[n+]1ccccc1
inactive: dose: 12.5 mg/kg/injection, schedule: Q01DX009 (ip), vehicle: saline 100 % of control | [7] 100 % of control | [8] 101 % of control

CC1=CC(=O)C=C(C)C1=O
inactive: dose: 1.56 mg/kg/injection, schedule: Q04DX003 (ip), vehicle: saline with Tween-80 106 % of control | dose: 3.12 mg/kg/injection, schedule: Q04DX003 (ip), vehicle: saline with Tween-80 89 % of control | dose: 6.25 mg/kg/injection, schedule: Q04DX003 (ip), vehicle: saline with Tween-80 103 % of control

CN(C)CC(OCCc1ccccc1)C(Cl)(Cl)Cl (configuration not stated)
inactive: [16] 107 % of control | [17] 109 % of control | [18] 109 % of control

CSc1c(C(=O)O)cc(C(C)(C)C)cc1C(=O)O
inactive: [16] 91 % of control | [17] 100 % of control | [18] 91 % of control

CCC(=O)NC1c2ccccc2Oc2ccccc21
inactive: [1] 100 % of control | [2] 100 % of control | [3] 98 % of control

CCn1c2ccc(N=C=O)cc2c2c3[nH]c(=O)c4cccn4c3ccc21
inactive: [1] 95 % of control | [2] 88 % of control | [3] 86 % of control

COc1cc(C2=N/C(=C\c3ccccc3O)C(=O)O2)cc(OC)c1OC
inactive: [7] 94 % of control | [8] 94 % of control | [9] 91 % of control

Cc1c(O)ccc2c1OCC(c1ccc(Cl)cc1)C2 (configuration not stated)
inactive: [12] 104 % of control | [13] 91 % of control | [14] 92 % of control

Cc1csc(N2C(=O)c3cccc4cccc(c34)C2=O)n1
inactive: [12] 110 % of control | [13] 96 % of control | [14] 96 % of control

CC1(C)CCCc2c(-c3ccccc3)cc3c4[nH]c5ccccc5c4cc[n+]3c21
inactive: [4] 99 % of control | [5] 99 % of control | [6] 101 % of control

CC(=O)Nc1ccc2c(c1)nc(-c1ccccn1)n2CCc1ccccn1
inactive: dose: 25.0 mg/kg/injection, schedule: Q01DX005 (ip), vehicle: Klucel (hydroxypropylcellulose) (HPC) 103 % of control | [10] 102 % of control | [11] 102 % of control | [15] 102 % of control

O=C1NNC(c2ccccc2)=Nc2[nH]ncc21
inactive: dose: 100.0 mg/kg/injection, schedule: Q04DX002 (ip), vehicle: saline with Tween-80 96 % of control | dose: 200.0 mg/kg/injection, schedule: Q04DX002 (ip), vehicle: saline with Tween-80 93 % of control | dose: 400.0 mg/kg/injection, schedule: Q04DX002 (ip), vehicle: saline with Tween-80 93 % of control

CCC[CH2][Sn]1([CH2]CCC)[O]C(=O)CSC(=S)SCC(=O)[O]1
inactive: dose: 1.56 mg/kg/injection, schedule: Q01DX009 (ip), vehicle: saline 90 % of control | dose: 3.12 mg/kg/injection, schedule: Q01DX009 (ip), vehicle: saline 92 % of control | dose: 6.25 mg/kg/injection, schedule: Q01DX009 (ip), vehicle: saline with Tween-80 116 % of control | dose: 6.25 mg/kg/injection, schedule: Q01DX009 (ip), vehicle: saline 89 % of control

CN(C)C1c2cc(Br)ccc2-c2ccc(Br)cc21
inactive: [10] 95 % of control | [11] 105 % of control | [15] 110 % of control
